≈ marks a conversion by molar mass, not a printed value. Where “and” joins values, the source holds several entries; their conditions need not be identical. Equal values may be shown once. Read-outs that look alike come from different tables or passages of the source.
Legend:
[1] = test system: Ralstonia insidiosa ATCC 49129; experiment: microbe, parasite or virus in culture; type: cell-based; conditions: for Reduced PhlB: fraction of PhlB dosage
Method: (§1) Tests are conducted according to the 2015 Clinical and Laboratory Standards Institute Method M07-A10: Methods for dilution antimicrobial susceptibility tests for bacteria that grow aerobically. Sterile 96-well microplates are prepared with Meuller Hinton Broth containing varying amounts of test compounds in each well (100 μL per well). Then according to the CLSI M07-A10 microdilution assay, a row with a 2-fold serial dilution series with 10 different concentrations of the test compound are prepared along with three replicate rows for each combination of test organism and test compound. According to the CLSI M07-A10 microdilution combination (checkerboard) assay, an 8×8 well matrix containing two 2-fold serial dilution series of two test compounds arranged perpendicular to one another so that each concentration of compound 1 is prepared once with each combination of compound 2. One column with a 2-fold serial dilution series with 8 different concentrations of test compound 1 is prepared along with one column with a 2-fold serial dilution series with 8 different concentrations of test compound 2. One microplate for each combination of test organism and pair of test compounds is prepared in addition to a cell suspension of each test microorganism equivalent to a 0.5 McFarland turbidity standard using fresh isolated colonies grown on Meuller Hinton Agar. Each cell suspension is diluted in a 1:20 ratio in Meuller Hinton Broth and the microplate is inoculated by adding add 10 μL to each well. Microplates then incubate according to CLSI M07-A10.
(§2) Microplates are read and data was interpreted according to the following procedure: The minimum inhibitory concentration (MIC) is the minimum concentration of the test compound needed to cease growth of the organism, it encompasses microbe death as well as microbe loss of the ability to divide and grow. Supplemental light was used during the 24-hour incubation period. Light intensity ranged from 1259 and 4203 lux.

[2] = test system: Gram(−) bacteria; conditions: PhlB on its own; background statement; cited from earlier work
[3] = test system: Altemaria alternata ATCC 66981; experiment: Mold microplate MIC (visible growth); type: cell-based, Alternaria alternata; conditions: for Reduced PhlB: fraction of PhlB dosage
Method: (§3) Mold: Culture Curvularia and Aspergillus on SDA at 35±1° C. for 7 days or until good sporulation is obtained. Culture Alternaria at 30±1° C. for 7 days or until good sporulation is obtained. Harvest sporulating colonies with 0.8-0.9% saline solution and transfer to a fresh tube. Allow heavy particles to settle for 5 minutes and transfer the upper homogeneous suspension to a sterile tube and mix via vortex for 15 seconds. Read and adjust the optical density to OD (530 nm): • Alternaria: 0.25-0.30 • Aspergillus: 0.09-0.13 • Curvularia: 0.25-0.30
(§4) During the Candida adjusted inoculum preparation, saline cell suspensions with optical densities equal to that of a 0.5 McFarland Equivalence Turbidity Standard were diluted 1:1000 in RPMI 1640, rather than 1:2000 as instructed in CLSI M27-A3. Alternaria was cultured at 30±1° C. for 7 days or until good sporulation was obtained.
(§5) Data Analysis/Reporting: Read microplates for visible growth (turbidity). Use the minimum inhibitory concentration (MIC).

[4] = test system: Aspergillus niger ATCC 6275; experiment: Mold microplate MIC (visible growth); type: cell-based; conditions: for Reduced PhlB: fraction of PhlB dosage
Method: as §3, §5

[5] = test system: Curvularia lunata ATCC 12017; experiment: Mold microplate MIC (visible growth); type: cell-based; conditions: for Reduced PhlB: fraction of PhlB dosage
Method: as §3, §5

[6] = test system: Stenotrophomonos maltophilia ATCC 13637; experiment: CLSI M07-A10 microdilution / checkerboard MIC; type: cell-based, Stenotrophomonas maltophilia; conditions: for Reduced PhlB: fraction of PhlB dosage
Method: as §1, §2

[7] = test system: Bacillus subtilis ATCC 15841; experiment: CLSI M07-A10 microdilution / checkerboard MIC; type: cell-based; conditions: for Reduced PhlB: fraction of PhlB dosage
Method: as §1, §2

[8] = test system: Rhizobium radiobacter ATCC 70069; experiment: CLSI M07-A10 microdilution / checkerboard MIC; type: cell-based; conditions: for Reduced PhlB: fraction of PhlB dosage; for MIC: Agrobacterium radiobacter, ATCC70069, 24 h, read-out: MIC at 24 hours in Light, Fluorescein, R. radiobacter
Method: as §1, §2

[9] = test system: Gram(+) bacteria; conditions: background statement; cited from earlier work
[10] = test system: Candida albicans ATCC 10231; experiment: Yeast microplate MIC (visible growth); type: cell-based; conditions: for Reduced PhlB: fraction of PhlB dosage
Method: Yeast: Culture Candida on Sabouraud Dextrose Agar (SDA) at 35±1° C. for 24-48 hours until colonies are approximately 2-3 mm in diameter. Suspend ˜5 colonies in 5 mL of sterile 0.8-0.9% saline solution. Vortex for 15 seconds. Adjust the cell density to that of a 0.5 McFarland Equivalence Turbidity Standard. Prepare adjusted inoculum: Dilute the cell suspension 1:2000 in RPMI 1640. Inoculate microplates by adding 100 μL to each applicable well.
as §4, §5

[11] = A. alternata, alone ('Trial' line)
[12] = B. subtilis, alone ('Trial' line)
[13] = R. radiobacter, alone ('Trial' line)
[14] = C. albicans, alone ('Trial' line)
[15] = R. insidiosa, alone ('Trial' line)
[16] = S. maltophilia, alone ('Trial' line)

**Q.** What does the source list for O=C1OC2(c3cc(Br)c([O-])c(Br)c3Oc3c2cc(Br)c([O-])c3Br)c2c(Cl)c(Cl)c(Cl)c(Cl)c21.[Na+].[Na+] [PHL B, disodium salt of 2′,4′,5′,7′-tetrabromo-4,5,6,7-tetrachlorofluorescein]?
**A.** Reduced PhlB ([1]; R. insidiosa, with Fluorescein): ⅛ and ¼ and ½ and 1/16; Reduced PhlB ([1]; R. insidiosa, with NaTetraBorate): ⅛ and ¼ and ½; control of Gram(−) bacteria [2]: does not control Gram(−) bacteria; MIC at 24 hours in Light, PHL B [3, 11]: 1.93 µM and 3.62 µM; Reduced PhlB ([3]; A. alternata, with Ammonium sulfate): ¼ and ½; Reduced PhlB ([3]; A. alternata, with Fluorescein): ¼; Reduced PhlB ([3]; A. alternata, with NaTetraBorate): ½; MIC at 24 hours in Light, PHL B ([4]; A. niger, alone ('Trial' line)): 1.93 µM and 3.62 µM; Reduced PhlB ([4]; A. niger, with Ammonium sulfate): ¼ and ½; Reduced PhlB ([4]; A. niger, with Fluorescein): ½; Reduced PhlB ([4]; A. niger, with NaTetraBorate): ½; Reduced PhlB ([5]; C. lunata, with Ammonium sulfate): ⅛ and ¼ and ½; Reduced PhlB ([5]; C. lunata, with Fluorescein): ¼ and ½; Reduced PhlB ([5]; C. lunata, with NaTetraBorate): ¼ and ½; Reduced PhlB ([6]; S. maltophilia, with Fluorescein): ⅛ and ¼ and ½ and 1/16; Reduced PhlB ([6]; S. maltophilia, with NaTetraBorate): ⅛ and ¼ and ½; MIC at 24 hours in Light, PHL B [7, 12]: 0.98 µM and 0.49 µM; Reduced PhlB ([7]; B. subtilis, with Fluorescein): ⅛ and ¼ and ½ and 1/16; Reduced PhlB ([7]; B. subtilis, with NaTetraBorate): 3/98 and 3/49 and ⅛ and ¼ and ½; MIC at 24 hours in Light, PHL B [8, 13]: 0.12 µM and 0.24 µM; Reduced PhlB ([8]; R. radiobacter, with Fluorescein): ¼ and ½ and ⅛; Reduced PhlB ([8]; R. radiobacter, with NaTetraBorate): ¼ and ½; control of Gram(+) bacteria [9]: control Gram(+) bacteria at millimolar to micromolar concentrations; MIC at 24 hours in Light, PHL B [10, 14]: 125 µM and 125.36 µM and 62.68 µM; Reduced PhlB ([10]; C. albicans, with Ammonium sulfate): 1/125 and 1/64 and 1/32 and 1/16 and ⅛ and ¼ and ½; Reduced PhlB ([10]; C. albicans, with Fluorescein): 1/64 and 1/32 and 1/16 and ⅛ and ¼ and ½; Reduced PhlB ([10]; C. albicans, with NaTetraBorate): 1/128 and 1/64 and 1/32 and 1/16 and ⅛ and ¼ and ½

**Q.** For N.N.O=S(=O)(O)O [Ammonium sulfate, ammonium sulfate], which “MIC at 24 hours in Light, Ammonium sulfate” value (shortened to “MIC … Ammonium sulfate”) [1, 15] is on record?
**A.** 750000 µM

**Q.** What about the “MIC … Ammonium sulfate” value [3, 11] of the same compound?
**A.** 46874 µM

**Q.** And the “MIC … Ammonium sulfate” value ([4]; A. niger, alone ('Trial' line))?
**A.** 93749 µM

**Q.** And the “MIC … Ammonium sulfate” value [6, 16]?
**A.** 375000 µM

**Q.** And the “MIC … Ammonium sulfate” value [7, 12]?
**A.** 93800 µM

**Q.** What about the “MIC … Ammonium sulfate” value [8, 13] of the same compound?
**A.** 93800 µM

**Q.** What about the “MIC … Ammonium sulfate” value [10, 14] of the same compound?
**A.** 750000 µM

**Q.** With [Na+].[Na+].[O-]B1OB2OB([O-])OB(O1)O2 [NaTetraBorate, sodium tetraborate] as the compound, how does the “MIC at 24 hours in Light, NaTetraBorate” value [1, 15] read?
**A.** 10000 µM

**Q.** And the “MIC at 24 hours in Light, NaTetraBorate” value [3, 11]?
**A.** 625160 µM

**Q.** And the “MIC at 24 hours in Light, NaTetraBorate” value ([4]; A. niger, alone ('Trial' line))?
**A.** 2673 µM

**Q.** What about the “MIC at 24 hours in Light, NaTetraBorate” value ([5]; C. lunata, alone ('Trial' line)) of the same compound?
**A.** 4999.50 µM

**Q.** What about the “MIC at 24 hours in Light, NaTetraBorate” value [6, 16] of the same compound?
**A.** 5000 µM

**Q.** And the “MIC at 24 hours in Light, NaTetraBorate” value [7, 12]?
**A.** 10000 µM

**Q.** What about the “MIC at 24 hours in Light, NaTetraBorate” value [8, 13] of the same compound?
**A.** 2500 µM

**Q.** What about the “MIC at 24 hours in Light, NaTetraBorate” value [10, 14] of the same compound?
**A.** 9999 µM

**Q.** Which results are given for O=C1OC2(c3ccc(O)cc3Oc3cc(O)ccc32)c2ccccc21 [Fluorescein, 3′,6′-dihydroxyspiro[2-benzofuran-3,9′-xanthene]-1-one]?
**A.** MIC ([1]; Ralstonia insidiosa, ATCC49129, 24 h, read-out: MIC at 24 hours in Light, Fluorescein, R. insidiosa, alone ('Trial' line)): 7.8 µM; MIC ([3]; Alternaria alternata, ATCC66981, 24 h, read-out: MIC at 24 hours in Light, Fluorescein, A. alternata, alone ('Trial' line)): 15.7 µM (≈ 5.21 µg/mL); MIC ([4]; Aspergillus niger, ATCC6275, 24 h, read-out: MIC at 24 hours in Light, Fluorescein, A. niger, alone ('Trial' line)): 1.86 µM (≈ 0.618 µg/mL); MIC ([5]; Curvularia lunata, ATCC12017, 24 h, read-out: MIC at 24 hours in Light, Fluorescein, C. lunata, alone ('Trial' line)): 15.7 µM (≈ 5.21 µg/mL); MIC ([6]; Stenotrophomonas maltophilia, ATCC13637, 24 h, read-out: MIC at 24 hours in Light, Fluorescein, S. maltophilia, alone ('Trial' line)): 7.8 µM; MIC ([7]; Bacillus subtilis, ATCC15841, 24 h, read-out: MIC at 24 hours in Light, Fluorescein, B. subtilis, alone ('Trial' line)): 62.5 µM; MIC ([8]; alone ('Trial' line)): 0.98 µM; MIC ([8]; combined with PHL B (c2 of same line)): 0.49 µM; MIC ([10]; Candida albicans, ATCC10231, 24 h, read-out: MIC at 24 hours in Light, Fluorescein, C. albicans, alone ('Trial' line)): 2000 µM (≈ 665 µg/mL)

Source: US20240349724A1, “ANTIMICROBIAL COMPOSITIONS EFFECTIVE AGAINST BACTERIA AND FUNGUS” (TerMir Inc., priority 2017, published 2024)
